Experimental data from article PMC6320956, “O-Aminoalkyl-O-Trimethyl-2,3-Dehydrosilybins: Synthesis and In Vitro Effects Towards Prostate Cancer Cells” (Molecules, 2018).

What was measured:
[1] = tested on: prostate cancer cell models; set-up: method as in PMID 17201169, PMID 26446382, PMID 27557939, PMID 21507570; conditions: cited from earlier work
[2] = tested on: MCF 10A non-neoplastic human mammary epithelial cell line; test: WST-1 cell proliferation assay, MCF 10A non-neoplastic cells; assay type: cell-based; conditions: Homo sapiens, MCF-10A, 72 h; WST-1, three days of exposure, mean ± SD, n = 3
Description: (§1) Silibinin and five potent derivatives (11, 29, 31, 37, and 40) were selected for further evaluation against the MCF 10A non-neoplastic human mammary epithelial cell line and PWR-1E non-neoplastic human prostate epithelial cells.
(§2) PC-3, DU145, or LNCaP cells were plated in 96-well plates at a density of 3,200 per well in 200 µL of culture medium. The cells were then separately treated with silibinin, or synthesized silibinin derivatives, at five different doses for three days, while equal treatment volumes of DMSO (0.25%) were used as the vehicle control. The cells were cultured in a CO2 incubator at 37 °C for three days. A total of 10 µL of the premixed WST-1 cell proliferation reagent (Clontech) was added to each well. After mixing gently for one min on an orbital shaker, the cells were incubated for an additional 3 h at 37 °C. To ensure a homogeneous distribution of color, it is important to mix gently on an orbital shaker for one min. The absorbance of each well was measured using a microplate reader (Synergy HT, BioTek, Winooski, VT, USA) at a wavelength of 430 nm. […] For calculating the IC50 values, a linear proliferative inhibition was made based on at least five dosages for each compound.

PC-3 cells = test: WST-1 cell proliferation assay, PC-3; assay type: cell-based, human; conditions: Homo sapiens, PC-3, 72 h, WST-1, three days of exposure, mean ± SD, n = 3
Summary of the method: (§3)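 Cells (3,200/well) were treated with five compound doses for three days at 37 °C, with 0.25% DMSO as vehicle. WST-1 reagent was added for 3 h and absorbance read at 430 nm. IC50 values were derived by linear proliferative-inhibition fitting over at least five doses.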

LNCaP cells = test: WST-1 cell proliferation assay, LNCaP; assay type: cell-based, human; conditions: Homo sapiens, LNCaP, 72 h, WST-1, three days of exposure, mean ± SD, n = 3
Summary of the method: as §3

DU145 cells = test: WST-1 cell proliferation assay, DU145; assay type: cell-based, human; conditions: Homo sapiens, DU-145, 72 h; WST-1, three days of exposure, mean ± SD, n = 3
Summary of the method: as §3

[3] = tested on: PWR-1E non-neoplastic human prostate epithelial cells; test: WST-1 cell proliferation assay, PWR-1E non-neoplastic cells; assay type: cell-based; conditions: Homo sapiens, PWR-1E, 72 h; WST-1, three days of exposure, mean ± SD, n = 3
Description: as §1, §2

In the case of `COc1cc(C2Oc3cc([C@H]4Oc5cc(O)cc(O)c5C(=O)[C@@H]4O)ccc3OC2CO)ccc1O` (stereo partly drawn) [Silibinin, reference compound], the IC50 [1] is given as 40 to 106 µM, the IC50 [2] is given as 23.8 ± 0.96 µM and the IC50 (PC-3 cells) is given as 72.7 ± 3.15 µM. For the same compound, the IC50 (LNCaP cells) was 43.7 ± 10.9 µM, the IC50 (DU145 cells) was 93.3 ± 13.7 µM and the IC50 [3] was 20.4 ± 4.09 µM.
